Measurements as given in patent US20070270432A1, “Novel Method” (priority 2002, published 2007).

What was measured:
hippocampal neurogenesis = conditions: literature; antidepressants given chronically; cited from earlier work
[1] = tested on: NCAM PSA-immunoreactive neurons, dentate granule cell layer/hilar border; assay: NCAM PSA expression in hippocampal dentate gyrus after chronic administration; format: in vivo, rat; conditions: for PSA immunopositive cell frequency: hippocampal dentate; for effect on frequency of polysialylated neurons in the subventricular zone of the rat hippocampal dentate gyrus: chronic administration, versus vehicle-treated control
Method: (§1) Experimentally naïve postnatal day 80 (at the time of NCAM-PSA assessment) male Wistar rats were employed in all studies. All animals were housed singly and maintained at 22±2° C. on a standard 12 h-light/dark cycle with food and water available ad libitum. Animals were introduced to the experimental holding rooms at least 3 days prior to the commencement of any study.
(§2) Freshly dissected whole rat brain was carefully coated in optimum cutting temperature (OCT) compound and lowered into a Cryoprep freezing apparatus containing dry-ice-cooled n-hexane. The function of the OCT compound and n-hexane was to provide an even freezing of the tissue, thus avoiding freezing artefacts. Horizontal sections for all studies were cut semi-automatically or automatically on a Microm Series 500 cryostat. Fresh, frozen brain sections (12 μm) were cut at −15° C., while cryoprotected. All sections were prepared on the day of the experiment and were not pre-cut and stored frozen.
(§3) Horizontal cryosections were cut from the frozen tissue at various levels with reference to Bregma (see above), these were thaw-mounted onto glass slides, which were coated with poly-1-lysine diluted 1:1 in dH2O, and immersion fixed for 30 minutes with 70% ethanol. The sections were then washed twice for 10 minutes each in 0.1M phosphate buffered saline (PBS) and incubated for 20 hours in a humidified chamber at room temperature with the primary antibody diluted 1:500 in PBS containing 1% bovin serum albumin (w/v) and 1% normal goat serum (v/v) to reduce non-specific staining. The humidified chamber prevented the sections from evaporating. The primary antibody was a monoclonal raised against PSA, which was provided by Professor G, Rougon (CNRS UMR 6545, 13288 Marseille, France). On completion of the primary antibody incubation, the sections were washed twice for ten minutes each in PBS and incubated at room temperature for 3 hours in the humidified chamber with the secondary antibody, at a dilution factor of 1:100, again in PBS containing 1% BSA and 1% NGS. The secondary antibody was a goat anti-mouse IgM conjugated to fluorescein (FITC). Following the second incubation, the sections ware again washed twice for ten minutes each in PBS, mounted in the fluorescence enhancing medium Citifluor® and observed for fluorescence with a Leitz DM RB fluorescent microscope.
(§4) Quantitative image analysis was performed using the Leica Quantimet 500®, a P.C.-based software package, which was connected to the fluorescence microscope with a high sensitivity CCD video camera. Each microscope lens was calibrated for length and area measurements using a 1 mm graticule. The total number of NCAM PSA-immunoreactive neurons on the right dentate granule cell layer/hilar border were counted in 7 alternate 12 μm sections commencing −5.6 mm from Bregma (Paxinos and Watson, 1986), to preclude double counting of the 5-10 μm perikarya. Cell identification was aided by the use of the nuclear counter-stain propidium iodide (40 ng/ml PBS; 60 sec). The number of cells was then divided by the total area of the dentate granule cell layer and multiplied by the average granule cell layer area for a p80 rat, which is 0.15±0.01 mm^2 at this level. This was done for each section and a mean±SEM was calculated for each brain with the results expressed as PSA-positive cells per unit area. […] Cell identification was again aided by the use of the nuclear counter-stain propidium iodide (40 ng/ml PBS; 60 sec) with the use of alternate sections eliminating the possibility of double counting. Cell counts were divided by the length of the cortex and multiplied by the average length of the cortex, which was taken to be 10 mm. This was completed for each section and a mean±SEM was calculated for each brain with the results expressed as PSA-positive cells per unit length.
NCAM PSA-positive cell numbers were obtained from each animal group.

[2] = tested on: BrdU-immunopositive cells in the hippocampal dentate granule cell layer; assay: BrdU expression in hippocampal dentate granule cell layer (neurogenesis); format: in vivo, rat; conditions: for BrdU-immunopositive cell number/granule cell layer: 20 mg/kg, 40 days by gavage, BrdU 100 mg/kg i.p. last eight days; for effect on expression of BrdU-immunopositive cells / neurogenic rate: chronic 20 mg/kg, versus vehicle-treated controls
Method: as §1

[3] = in vivo; cited from earlier work
[4] = tested on: polysialylated neurons in layer II of the entorhinal and perirhinal cortex; assay: NCAM PSA expression in medial temporal lobe after chronic administration; format: in vivo, rat; conditions: 20 mg/kg; for PSA immunopositive cell frequency: medial temporal lobe, 40 days by gavage
Method: Experimentally naïve postnatal day 80 (at the time of NCAM-PSA assessment) male Wistar rats were employed in all studies. All animals were housed singly and maintained at 22±2° C. on a standard 12 h-light/dark cycle with food and water available ad libitum. Animals were introduced to the experimental holding rooms at least 3 days prior to the commencement of any study. The frequency of polysialylated neurons in the rat medial temporal lobe was also examined following chronic exposure to 5-HT6 antagonist. […] Horizontal cryosections were cut from the frozen tissue at various levels with reference to Bregma (see above), these were thaw-mounted onto glass slides, which were coated with poly-[…] diluted 1:1 in dH2O, and immersion fixed for 30 minutes with 70% ethanol. The sections were then washed twice for 10 minutes each in 0.1M phosphate buffered saline (PBS) and incubated for 20 hours in a humidified chamber at room temperature with the primary antibody diluted 1:500 in PBS containing 1% bovin serum albumin (w/v) and 1% normal goat serum (v/v) to reduce non-specific staining. The humidified chamber prevented the sections from evaporating. The primary antibody was a monoclonal raised against PSA, which was provided by Professor G, Rougon (CNRS UMR 6545, 13288 Marseille, France). On completion of the primary antibody incubation, the sections were washed twice for ten minutes each in PBS and incubated at room temperature for 3 hours in the humidified chamber with the secondary antibody, at a dilution factor of 1:100, again in PBS containing 1% BSA and 1% NGS. The secondary antibody was a goat anti-mouse IgM conjugated to fluorescein (FITC). Following the second incubation, the sections ware again washed twice for ten minutes each in PBS, mounted in the fluorescence enhancing medium Citifluor® and observed for fluorescence with a Leitz DM RB fluorescent microscope. Quantitative image analysis was performed using the Leica Quantimet 500®, a P.C.-based software package, which was connected to the fluorescence microscope with a high sensitivity CCD video camera. Each microscope lens was calibrated for length and area measurements using a 1 mm graticule. […] Cell identification was aided by the use of the nuclear counter-stain propidium iodide (40 ng/ml PBS; 60 sec). […] This was done for each section and a mean±SEM was calculated for each brain with the results expressed as PSA-positive cells per unit area. […] Cell identification was again aided by the use of the nuclear counter-stain propidium iodide (40 ng/ml PBS; 60 sec) with the use of alternate sections eliminating the possibility of double counting. Cell counts were divided by the length of the cortex and multiplied by the average length of the cortex, which was taken to be 10 mm. This was completed for each section and a mean±SEM was calculated for each brain with the results expressed as PSA-positive cells per unit length. […] NCAM PSA-positive cell numbers were obtained from each animal group. Results were expressed as mean±SEM with at least 3-6 values per group and analysed by ANOVA or unpaired non-parametric, Student's t-test, as indicated. […] Drug administration ceased 24 h prior to animal sacrifice. Animal weight gain and general physical condition was monitored daily. Methylcellulose (1% w/v) treated controls and use of the antipyschotic clozapine were employed for comparison.

seizure threshold = conditions: rat MEST test, dose range 0.1-30 mg/kg; cited from earlier work
rat 5-HT6 receptors = rat 5-HT6 receptors (Rattus norvegicus, UniProt P31388); conditions: cited from earlier work
Sequence of rat 5-HT6 receptors (P31388 whole entry): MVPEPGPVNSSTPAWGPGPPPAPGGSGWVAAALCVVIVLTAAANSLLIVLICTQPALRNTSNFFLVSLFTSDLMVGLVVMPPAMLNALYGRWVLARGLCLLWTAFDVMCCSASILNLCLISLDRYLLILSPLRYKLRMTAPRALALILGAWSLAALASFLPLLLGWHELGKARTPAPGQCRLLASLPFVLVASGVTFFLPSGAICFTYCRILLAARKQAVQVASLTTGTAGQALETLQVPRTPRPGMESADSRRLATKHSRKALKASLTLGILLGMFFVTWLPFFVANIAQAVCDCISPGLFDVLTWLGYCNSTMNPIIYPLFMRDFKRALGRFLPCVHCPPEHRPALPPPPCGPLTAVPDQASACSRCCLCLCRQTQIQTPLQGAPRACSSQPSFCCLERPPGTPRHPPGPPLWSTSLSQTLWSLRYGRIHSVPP

[5] = tested on: NCAM PSA-immunoreactive neurons, dentate granule cell layer/hilar border; assay: NCAM PSA expression in hippocampal dentate gyrus with water maze training; format: in vivo, rat; conditions: for effect on frequency of polysialylated neurons at 12 h following water maze training: versus untrained drug-treated and trained drug-naive animals
Method: as §1, §2, §3, §4
In this protocol animals were introduced to the training environment 5 days prior to training, and individually housed according to standard conditions. […]

[6] = tested on: retention of a spacial memory task; conditions: rat, 10 mg/kg p.o.; cited from earlier work
[7] = Example 3, 20 mg/kg, 40 days by gavage

N[C@@H]1C[C@H]1c1ccccc1 (racemic) [tranylcypromine]
effect on hippocampal neurogenesis (hippocampal neurogenesis): stimulate hippocampal neurogenesis

CCOC(=O)[C@H](N)/C=C(\C)CP(=O)(O)O [CGP43487]
effect on hippocampal neurogenesis (hippocampal neurogenesis): reduce the rate of hippocampal neurogenesis

COc1ccc(NS(=O)(=O)c2sc3ccc(Cl)cc3c2C)cc1N1CCNCC1.Cl [SB271046, 5-Chloro-3-methylbenzo[b]thiophene-2-sulfonic acid (4-methoxy-3-piperazin-1-ylphenyl)amide hydrochloride]
PSA immunopositive cell frequency ([1]; Example 1, 3 mg/kg, 40 days by gavage): 70.3 ± 3.9 PSA-positive cells per unit area
PSA immunopositive cell frequency ([1]; Example 1, 10 mg/kg, 40 days by gavage): 82.4 ± 1.7 PSA-positive cells per unit area
PSA immunopositive cell frequency ([1]; Example 1, 20 mg/kg, 40 days by gavage): 85.8 ± 8.4 PSA-positive cells per unit area
PSA immunopositive cell frequency [1, 7]: 78.3 ± 3.4 PSA-positive cells per unit area
frequency of polysialylated neurons in repeat group compared with Example 1 ([1]; Example 3 repeat, 20 mg/kg chronic): no difference
effect on frequency of polysialylated neurons in the subventricular zone of the rat hippocampal dentate gyrus [1]: significantly increase
BrdU-immunopositive cell number/granule cell layer [2]: 2332 ± 136.5
effect on expression of BrdU-immunopositive cells / neurogenic rate [2]: without altering neurogenic rate
oral bioavailability [3]: orally bioavailable
effect on frequency of polysialylated neurons in the rat medial temporal lobe ([4]; chronic exposure): increased
PSA immunopositive cell frequency ([4]; Bregma level -7.1 mm): 61.7 ± 1.7 PSA-positive cells per unit length
PSA immunopositive cell frequency ([4]; Bregma level -7.6 mm): 69.9 ± 0.9 PSA-positive cells per unit length
PSA immunopositive cell frequency ([4]; Bregma level -8.1 mm): 125.4 ± 3.5 PSA-positive cells per unit length
PSA immunopositive cell frequency ([4]; Bregma level -8.6 mm): 178.3 ± 12.2 PSA-positive cells per unit length
seizure threshold (seizure threshold): increases seizure threshold
pKi (rat 5-HT6 receptors): 9.0
PSA immunopositive cell frequency ([5]; Example 2, acute 20 mg/kg by gavage 30 min before water maze training, 12 h post-training): 96.0 ± 5.5 PSA-positive cells per unit area
PSA immunopositive cell frequency ([5]; Example 2, acute 20 mg/kg by gavage, untrained): 64.2 ± 4.3 PSA-positive cells per unit area
PSA immunopositive cell frequency ([5]; Example 2, chronic 20 mg/kg, 40 days by gavage, 12 h post water maze training): 109.8 ± 1.8 PSA-positive cells per unit area
PSA immunopositive cell frequency ([5]; Example 2, chronic 20 mg/kg, 40 days by gavage, untrained): 85.8 ± 1.3 PSA-positive cells per unit area
effect on frequency of polysialylated neurons at 12 h following water maze training ([5]; acute 20 mg/kg): significantly increase
retention of a spacial memory task [6]: significant improvements

COc1ccc(S(=O)(=O)Nc2cc(Cl)cc(Cl)c2OC)cc1N1CCNCC1.Cl [SB399885, N-(3,5-dichloro-2-methoxy-phenyl)-4-methoxy-3-piperazin-1-yl-benzenesulfonamide hydrochloride]
PSA immunopositive cell frequency ([1]; Example 3, 3 mg/kg, 40 days by gavage): 81.4 ± 5.3 PSA-positive cells per unit area
PSA immunopositive cell frequency ([1]; Example 3, 10 mg/kg, 40 days by gavage): 87.4 ± 5.4 PSA-positive cells per unit area
PSA immunopositive cell frequency [1, 7]: 104.2 ± 4.4 PSA-positive cells per unit area
effect on frequency of polysialylated neurons in the subventricular zone of the rat hippocampal dentate gyrus [1]: significantly increase
dose dependent increase in basal frequency of hippocampal polysialylated neurons compared with SB271046 of Example 1 ([1]; chronic treatment, analysis of variance F[1,21]=5.882, P=0.0244): significantly greater
BrdU-immunopositive cell number/granule cell layer [2]: 2296.7 ± 49.1
effect on expression of BrdU-immunopositive cells / neurogenic rate [2]: without altering neurogenic rate
PSA immunopositive cell frequency ([5]; Example 4, chronic 20 mg/kg, 40 days by gavage, 12 h post water maze training): 125.9 ± 4.7 PSA-positive cells per unit area
PSA immunopositive cell frequency ([5]; Example 4, chronic 20 mg/kg, 40 days by gavage, untrained): 104.2 ± 4.4 PSA-positive cells per unit area
increase in frequency of hippocampal polysialylated neurons 12 h following water maze training compared with SB271046 of Example 2 ([5]; chronic 20 mg/kg, Student's t-test P=0.0337): significantly greater
effect on frequency of polysialylated neurons at 12 h following water maze training ([5]; chronic 20 mg/kg): significantly increase

NCCc1c[nH]c2ccc(O)cc12 [Serotonin]
effect on hippocampal neurogenesis (hippocampal neurogenesis): stimulate hippocampal neurogenesis

CN1CCN(C2=Nc3cc(Cl)ccc3Nc3ccccc32)CC1 [clozapine, reference compound]
PSA immunopositive cell frequency ([1]; Example 1, 5 mg/kg, chronic comparison group): 69.8 ± 1.6 PSA-positive cells per unit area

CNCCC(Oc1ccc(C(F)(F)F)cc1)c1ccccc1 (stereo not shown) [fluoxetine]
effect on hippocampal neurogenesis (hippocampal neurogenesis): stimulate hippocampal neurogenesis

CN1CC[C@]23c4c5ccc(O)c4O[C@H]2[C@@H](O)C=C[C@H]3[C@H]1C5 [morphine]
effect on hippocampal neurogenesis (hippocampal neurogenesis): reduce the rate of hippocampal neurogenesis

CCOc1ccccc1OC(c1ccccc1)C1CNCCO1 (stereo not shown) [reboxetine]
effect on hippocampal neurogenesis (hippocampal neurogenesis): stimulate hippocampal neurogenesis
